In US20230181614A1, “ADMINISTRATION OF CITICOLINE TO IMPROVE COGNITIVE PERFORMANCE, ATTENTIONAL PERFORMANCE, AND MOTOR FUNCTION” (KYOWA HAKKO BIO CO., LTD., priority 2014, published 2023):

Test system: Healthy subjects, ages 13-18
Experiment: General Questionnaire
Assay type: in vivo, human
Settings: 250 mg/day
Description: Study participants were screened by telephone prior to study enrollment. Healthy subjects, ages 13-18, with no significant medical conditions and no history of co-morbid psychiatric disorder, current Axis I or II diagnosis, or previous participation in a pharmacotherapeutic trial, were selected. Use of any psychotropic medication or any previous head injury resulting in loss of consciousness for 5 or more minutes were used as exclusion criteria. While no participant met criteria for a neuropsychiatric disorder at enrollment, clinical assessments were still completed throughout the study to evaluate changes in mood state. In addition, self-reports of sleep habits, lifestyle, and exercise routines were also administered at baseline as well as at each study visit to assess changes in health habits during study participation. Following the completion of Visit 1 assessment, participants were given their 28-day supply of citicoline (250 mg or 500 mg) or placebo, which was randomly assigned. They were instructed to take one capsule a day every day for the next 28 days. Visit 2 occurred fourteen days after Visit 1. At Visit 2, the remaining study pills were counted and participant dosage calendars were checked to ensure compliance with the protocol. Additional neuropsychological measures and clinical assessments were administered during this visit. Participants returned for Visit 3 fourteen days later, on the 28th day of their study participation. The pill bottle and the dosage calendar were collected from each participant. Urine and blood were again obtained. Participants also participated in similar clinical and neuropsychological testing and clinical measures that were given during visit 1. The General Questionnaire and Exercise and Life Style Questionnaire are self-report questionnaires designed to assess a variety of symptoms, behaviors, and self-perceptions, including mood, complexion, exercise, food, and alcohol habits of each of the participants. The General Questionnaire was administered during each of the three study visits; the Exercise and Life Style Questionnaire was administered during each of the three study visits. The General Questionnaire included five summary categories (Vision, Depression, Attention, Sleep, and Complexion) each of which had multiple individual items. Within and between group analyses are reported below for each of the summary categories.

Q: Which results are given for `C[N+](C)(C)CCOP(=O)(O)OP(=O)([O-])OC[C@H]1O[C@@H](n2ccc(N)nc2=O)[C@H](O)[C@@H]1O` [citicoline, Cytidine 5′-diphosphocholine]?
A: Attention Total V3-V1 Difference Mean: -5.58; Complexion Total V3-V1 Difference Mean: -0.67; Depression Total V3-V1 Difference Mean: -7.37; Sleep Total V3-V1 Difference Mean: -5.59; Vision Total V3-V1 Difference Mean: -2.26; Attention Total V3 Mean (Visit 3): 38.48; Complexion Total V3 Mean (Visit 3): 3.96; Depression Total V3 Mean (Visit 3): 21.04; Sleep Total V3 Mean (Visit 3): 18.96; Vision Total V3 Mean (Visit 3): 6.59; General Questionnaire Attention Q13, Mean (V1 (baseline)): 3.52; General Questionnaire Attention Q14, Mean (V1 (baseline)): 2.37; General Questionnaire Attention Q15, Mean (V1 (baseline)): 3.89; General Questionnaire Attention Q16, Mean (V1 (baseline)): 3.19; General Questionnaire Attention Q17, Mean (V1 (baseline)): 3.30; General Questionnaire Attention Q18, Mean (V1 (baseline)): 2.63; General Questionnaire Attention Q19, Mean (V1 (baseline)): 6.59; General Questionnaire Attention Q20, Mean (V1 (baseline)): 3.48; General Questionnaire Attention Q21, Mean (V1 (baseline)): 3.22; General Questionnaire Attention Q22, Mean (V1 (baseline)): 4.00; General Questionnaire Attention Q23, Mean (V1 (baseline)): 4.15; General Questionnaire Attention Q24, Mean (V1 (baseline)): 3.67; General Questionnaire Attention Total, Mean (V1 (baseline)): 44.31; General Questionnaire Complexion Q33, Mean (V1 (baseline)): 2.78; General Questionnaire Complexion Q34, Mean (V1 (baseline)): 1.85; General Questionnaire Complexion Total, Mean (V1 (baseline)): 4.63; General Questionnaire Depression Q4, Mean (V1 (baseline)): 2.59; General Questionnaire Depression Q5, Mean (V1 (baseline)): 3.26; General Questionnaire Depression Q6, Mean (V1 (baseline)): 2.85; General Questionnaire Depression Q7, Mean (V1 (baseline)): 4.26; General Questionnaire Depression Q8, Mean (V1 (baseline)): 2.74; General Questionnaire Depression Q9, Mean (V1 (baseline)): 3.74; General Questionnaire Depression Q10, Mean (V1 (baseline)): 2.85; General Questionnaire Depression Q11, Mean (V1 (baseline)): 2.85; General Questionnaire Depression Q12, Mean (V1 (baseline)): 3.26; General Questionnaire Depression Total, Mean (V1 (baseline)): 28.41; General Questionnaire Sleep Q25, Mean (V1 (baseline)): 3.19; General Questionnaire Sleep Q26, Mean (V1 (baseline)): 2.78; General Questionnaire Sleep Q27, Mean (V1 (baseline)): 3.26; General Questionnaire Sleep Q28, Mean (V1 (baseline)): 3.63; General Questionnaire Sleep Q29, Mean (V1 (baseline)): 3.48; General Questionnaire Sleep Q30, Mean (V1 (baseline)): 2.11; General Questionnaire Sleep Q31, Mean (V1 (baseline)): 1.96; General Questionnaire Sleep Q32, Mean (V1 (baseline)): 4.15; General Questionnaire Sleep Total, Mean (V1 (baseline)): 24.56; General Questionnaire Vision Q1, Mean (V1 (baseline)): 3.44; General Questionnaire Vision Q2, Mean (V1 (baseline)): 3.26; General Questionnaire Vision Q3, Mean (V1 (baseline)): 2.15; General Questionnaire Vision Total, Mean (V1 (baseline)): 8.85; General Questionnaire Attention Q13, Mean (V3 (day 28)): 2.74; General Questionnaire Attention Q14, Mean (V3 (day 28)): 2.48; General Questionnaire Attention Q15, Mean (V3 (day 28)): 3.15; General Questionnaire Attention Q16, Mean (V3 (day 28)): 2.63; General Questionnaire Attention Q17, Mean (V3 (day 28)): 2.48; General Questionnaire Attention Q18, Mean (V3 (day 28)): 2.26; General Questionnaire Attention Q19, Mean (V3 (day 28)): 6.41; General Questionnaire Attention Q20, Mean (V3 (day 28)): 3.22; General Questionnaire Attention Q21, Mean (V3 (day 28)): 3.15; General Questionnaire Attention Q22, Mean (V3 (day 28)): 3.35; General Questionnaire Attention Q23, Mean (V3 (day 28)): 3.70; General Questionnaire Attention Q24, Mean (V3 (day 28)): 2.96; General Questionnaire Attention Total, Mean (V3 (day 28)): 38.73; General Questionnaire Complexion Q33, Mean (V3 (day 28)): 2.30; General Questionnaire Complexion Q34, Mean (V3 (day 28)): 1.67; General Questionnaire Complexion Total, Mean (V3 (day 28)): 3.96; General Questionnaire Depression Q4, Mean (V3 (day 28)): 1.81; General Questionnaire Depression Q5, Mean (V3 (day 28)): 2.30; General Questionnaire Depression Q6, Mean (V3 (day 28)): 2.00; General Questionnaire Depression Q7, Mean (V3 (day 28)): 3.33; General Questionnaire Depression Q8, Mean (V3 (day 28)): 1.81; General Questionnaire Depression Q9, Mean (V3 (day 28)): 2.89; General Questionnaire Depression Q10, Mean (V3 (day 28)): 2.07; General Questionnaire Depression Q11, Mean (V3 (day 28)): 2.15; General Questionnaire Depression Q12, Mean (V3 (day 28)): 2.67; General Questionnaire Depression Total, Mean (V3 (day 28)): 21.04; General Questionnaire Sleep Q25, Mean (V3 (day 28)): 2.33; General Questionnaire Sleep Q26, Mean (V3 (day 28)): 2.15; General Questionnaire Sleep Q27, Mean (V3 (day 28)): 2.07; General Questionnaire Sleep Q28, Mean (V3 (day 28)): 2.78; General Questionnaire Sleep Q29, Mean (V3 (day 28)): 2.19; General Questionnaire Sleep Q30, Mean (V3 (day 28)): 1.96; General Questionnaire Sleep Q31, Mean (V3 (day 28)): 1.93; General Questionnaire Sleep Q32, Mean (V3 (day 28)): 3.56; General Questionnaire Sleep Total, Mean (V3 (day 28)): 18.96; General Questionnaire Vision Q1, Mean (V3 (day 28)): 2.33
